Reference: article PMC5603227 (ChemMedChem, 2017)
In brackets after ≈: the same amount, converted by molar mass.

Key:
Format in all cases: cell-based, Mycobacterium tuberculosis
[1] = tested on: Fluoroquinolone resistant strain derived from H37Rv Mtb, gyrA mutant (D94N)
[2] = tested on: Rifampicin resistant strain ACTCC35838; experiment: microbe, parasite or virus in culture; settings: for MIC: Mycobacterium tuberculosis, ACTCC35838, read-out: MIC RIF res2
[3] = tested on: Rifampicin resistant strain derived from H37Rv Mtb, ropB mutant (S522L)
[4] = tested on: Isoniazid resistant strain ACTCC35822; experiment: microbe, parasite or virus in culture; settings: for MIC: Mycobacterium tuberculosis, ACTCC35822, read-out: MIC INH res2
[5] = tested on: Isoniazid resistant strain derived from H37Rv Mtb, katG mutant (Y155*)

| Compound | MIC FQ res [1] [µM] | MIC [2] [µM] | MIC RIF res1 [3] [µM] | MIC [4] [µM] | MIC INH res1 [5] [µM] | MIC RIF res2 ([2]; ACTCC35838) [µM] | MIC INH res2 ([4]; ACTCC35822) [µM] |
| --- | --- | --- | --- | --- | --- | --- | --- |
| Cc1ccn2c(C(=O)NCc3ccc(S(F)(F)(F)(F)F)cc3)c(C)nc2c1 [Compound 13, 2,7-Dimethyl-N-(4-(pentafluoro-λ^6-sulfanyl)benzyl)imidazo[1,2-a]pyridine-3-carboxamide] | 0.36 (≈ 0.146 µg/mL) | 0.52 (≈ 0.211 µg/mL) | 0.079 (≈ 0.032 µg/mL) | 0.24 (≈ 0.0973 µg/mL) | 0.070 (≈ 0.0284 µg/mL) | – | – |
| Cc1ccn2c(C(=O)NCc3cccc(S(F)(F)(F)(F)F)c3)c(C)nc2c1 [Compound 14, 2,7-Dimethyl-N-(3-(pentafluoro-λ^6-sulfanyl)benzyl)imidazo[1,2-a]pyridine-3-carboxamide] | 2.5 (≈ 1.01 µg/mL) | 0.13 (≈ 0.0527 µg/mL) | 1.3 (≈ 0.527 µg/mL) | 4 (≈ 1.62 µg/mL) | 3.4 (≈ 1.38 µg/mL) | – | – |
| Cc1ccc2nc(C)c(C(=O)NCc3ccc(S(F)(F)(F)(F)F)cc3)n2c1 [Compound 15, 2,6-Dimethyl-N-(4-(pentafluoro-λ^6-sulfanyl)benzyl)imidazo[1,2-a]pyridine-3-carboxamide] | 0.021 (≈ 0.00851 µg/mL) | 0.016 (≈ 0.00649 µg/mL) | 0.0060 (≈ 0.00243 µg/mL) | 0.011 (≈ 0.00446 µg/mL) | 0.044 (≈ 0.0178 µg/mL) | – | – |
| Cc1ccc2nc(C)c(C(=O)NCc3cccc(S(F)(F)(F)(F)F)c3)n2c1 [Compound 16, 2,6-Dimethyl-N-(3-(pentafluoro-λ^6-sulfanyl)benzyl)imidazo[1,2-a]pyridine-3-carboxamide] | 2.7 (≈ 1.09 µg/mL) | 7.2 (≈ 2.92 µg/mL) | 0.35 (≈ 0.142 µg/mL) | 2.4 (≈ 0.973 µg/mL) | 3.1 (≈ 1.26 µg/mL) | – | – |
| CCc1nc2ccc(Cl)cn2c1C(=O)NCc1ccc(S(F)(F)(F)(F)F)cc1 [Compound 17, 6-Chloro-2-ethyl-N-(4-(pentafluoro-λ^6-sulfanyl)benzyl)imidazo[1,2-a]pyridine-3-carboxamide] | 0.083 (≈ 0.0365 µg/mL) | 0.022 (≈ 0.00968 µg/mL) | 0.0089 (≈ 0.00391 µg/mL) | 0.021 (≈ 0.00924 µg/mL) | 0.051 (≈ 0.0224 µg/mL) | – | – |
| CCc1nc2ccc(Cl)cn2c1C(=O)NCc1cccc(S(F)(F)(F)(F)F)c1 [Compound 18, 6-Chloro-2-ethyl-N-(3-(pentafluoro-λ^6-sulfanyl)benzyl)imidazo[1,2-a]pyridine-3-carboxamide] | 2.9 (≈ 1.28 µg/mL) | 0.5 (≈ 0.22 µg/mL) | 1.5 (≈ 0.66 µg/mL) | 2.7 (≈ 1.19 µg/mL) | 2.9 (≈ 1.28 µg/mL) | – | – |
| Cc1cn2c(C(=O)NCc3ccc(S(F)(F)(F)(F)F)cc3)c(C)nc2s1 [Compound 19, 2,6-Dimethyl-N-(4-(pentafluoro-λ^6-sulfanyl)benzyl)imidazo[2,1-b]thiazole-5-carboxamide] | 0.33 (≈ 0.136 µg/mL) | 0.64 (≈ 0.263 µg/mL) | 0.26 (≈ 0.107 µg/mL) | 0.39 (≈ 0.16 µg/mL) | 0.60 (≈ 0.247 µg/mL) | – | – |
| NNC(=O)c1ccncc1 [INH, Isoniazid, reference compound] | 0.34 (≈ 0.0466 µg/mL) | 0.37 (≈ 0.0507 µg/mL) | 0.160 (≈ 0.0219 µg/mL) | > 200 | >200 | – | – |
| CO[C@H]1/C=C/O[C@@]2(C)Oc3c(C)c(O)c4c(O)c(c(/C=N/N5CCN(C)CC5)c(O)c4c3C2=O)NC(=O)/C(C)=C\C=C\[C@H](C)[C@H](O)[C@@H](C)[C@@H](O)[C@@H](C)[C@H](OC(C)=O)[C@@H]1C [RIF, Rifampicin, reference compound] | 0.043 (≈ 0.0354 µg/mL) | > 50 | 3.2 (≈ 2.63 µg/mL) | 0.013 (≈ 0.0107 µg/mL) | 0.027 (≈ 0.0222 µg/mL) | – | – |
| Levoflaxacin [reference compound] | 91 | – | 3.43 | – | 3.97 | 3.83 | 5.83 |
